Assay results: patent EP0430194A2, “Aryl-alkyl-azoles substituted with many times unsaturated groups, process for their preparation and their use” (HOECHST AKTIENGESELLSCHAFT, priority 1989, dated 1991)

Legend:
[1] = test system: Trichophyton mentagrophytes; test: Local in vivo efficacy, dermal treatment of guinea pigs infected with Trichophyton mentagrophytes; conditions: Dermal 5 x 0,1 %; for Mykosen (Durchmesser in mm) Mittelwert (Standardabweich.): Meerschweinchen (Pirbright white), from day 3 after infection, n = 6; for Reduktion in %: Meerschweinchen, relative to Bifonazol = 100,0
Excerpt: Als Beispiel für die hohe lokale in vivo Wirksamkeit der erfindungsgemäßen Verbindungen werden Behandlungsergebnisse an Experimenten mit Trichophyton mentagrophytes infizierten Labortieren angeführt.
Zur Feststellung der lokalen Wirksamkeit wurde jeweils ein 450 - 500 g schweres Meerschweinchen (Stamm Pirbright white) mit 1,5 x 10⁴ Konidien/Tier in die Epidermis verteilt auf 6 Infektionspunkte, infiziert.
Die Behandlung der Tiere erfolgte dermal ab dem 3. Tag nach der Infektion an 5 aufeinander folgenden Tagen durch Aufbringen einer 0,1 %igen Präparatlösung auf 6 Infektionsstellen der Rückenseite.
Neben den mit den erfindungsgemäßen Substanzen behandelten Tieren wurde ein Tier mit der Referenzsubstanz Bifonazol behandelt, ein Tier blieb nach der Infektion unbehandelt.

[2] = test system: freigesetzten Exoenzyme von Candida albicans; test: In vitro enzyme test: inhibition of released exoenzymes of Candida albicans blastoconidia on egg-yolk agar plate; type: cell-based; conditions: Stamm 200/175
Excerpt: Als Beispiel für die Hemmung der pathogenen Phase dimorpher Hefezellen werden Ergebnisse eines in-vitro-Enzymtests angeführt, in welchen die prozentuale Hemmung freigesetzter Exoenzyme, insbesondere freigesetzter Lysophospholipase (Phospholipase B), als Maß für die Wirksamkeit bestimmt wird.
Zur Feststellung der Enzymhemmung wurde eine Suspension von Candida albicans Blastokonidien (Stamm 200/175), wobei die Keimdichte photometrisch auf eine Extinktion von 0,5 (500 nm) eingestellt war, mit Präparatelösung bzw. zur Kontrolle mit Lösungsmittellösung vermischt und zwar • a) 100 µl Präparatelösung (Suspension) + 900 µl Keimsuspension • b) 100 µl Lösungsmittel + 900 µl Keimsuspension
Jeweils 5 µl der 30 min bei 21°C inkubierten Blastokonidiensuspension wurden auf eine Agarplatte (Sabourand Agar mit Zusatz von 8 % Eigelb, 1 M NaCl, 5 mM CaCl₂) aufgetropft.
Die so beimpfte Platte wurde 3 Tage bei 37°C bebrütet.
Die Auswertung erfolgte derart, daß • 1. der Durchmesser (mm) der Candida albicans-Kolonie (behandelt und unbehandelt) sowie • 2. der Gesamtdurchmesser von Kolonie und Trübungshof, welcher durch Exoenzyme verursacht wurde (behandelt und unbehandelt) bestimmt wurde.
Aus der Bestimmung des Quotienten von Präparate- und Kontrollgruppe ergab sich ein Wert, der als Maß für die Enzymaktivität anzusehen war.

[3] = test system: Phospholipase aus Leberzellen; conditions: literature, Biochem. Pharmacol. 34, 521-24, 1985; cited from earlier work
[4] = Präparat-Konzentration 10 µg/ml
[5] = Präparat-Konzentration 50 µg/ml
[6] = Präparat-Konzentration 100 µg/ml

SMILES | Mykosen (Durchmesser in mm) Mittelwert (Standardabweich.) [1] | Reduktion in % [1] | Prozentuale Hemmung der freigesetzten Exoenzyme von Candida albicans in vitro [2, 4] | Prozentuale Hemmung der freigesetzten Exoenzyme von Candida albicans in vitro [2, 5] | Prozentuale Hemmung der freigesetzten Exoenzyme von Candida albicans in vitro [2, 6] | Hemmwirkung gegenüber Phospholipase aus Leberzellen [3]
CC(C)=CCC/C(C)=C\COC(Cn1ccnc1)c1ccc(Cl)cc1Cl (racemic) [Beispiel 2, (R,S)-1-(2,4-Dichlorphenyl)-1-(cis-3,7-dimethyl-2,6-octadien-1-oxy)-2-(imidazol-1-yl)-ethan] | 3,3 (0,5) mm | 139,3% | 41,2% | 100% | 100% | –
CC(C)=CCC/C(C)=C\COC(Cn1cncn1)c1ccc(Cl)cc1Cl (racemic) [Beispiel 5] | 2,6 (1,5) mm | 176,9% | – | – | – | –
CC(C)=CCC/C(C)=C\COC(CCn1ccnc1)c1cccs1 (racemic) [Beispiel 40] | 2,8 (1,7) mm | 164,2% | – | – | – | –
CC(C)=CCC/C(C)=C\COC(Cn1cncn1)c1ccc(Cl)s1 (racemic) [Beispiel 42] | – | – | 50,0% | 100% | 100% | –
CC(C)=CCC/C(C)=C\COC(Cn1ccnc1)c1ccccn1 (racemic) [Beispiel 46] | 2,8 (1,6) mm | 164,2% | – | – | – | –
CC(C)=CCC/C(C)=C\COC(Cn1ccnc1)c1ccco1 (racemic) [Beispiel 47] | 3,6 (0,8) mm | 127,7% | – | – | – | –
c1ccc(-c2ccc(C(c3ccccc3)n3ccnc3)cc2)cc1 (stereo not shown) [Bifonazol, reference compound] | 4,6 (1,5) mm | 100,0% | – | – | – | –
CC(C)NCC(O)COc1cccc2ccccc12 (stereo not shown) [Propranolol, reference compound] | – | – | 0% | 10% | 30% | Hemmwirkung zeigte
